In patent publication EP1056700B1, “MEDICINAL USES OF PHENYLALKANOLS AND DERIVATES” (ZingoTX Pty Ltd, priority 1997, dated 1999):
Where “and” joins values, the source holds several entries; their conditions need not be identical. Equal values may be shown once. One block for each compound: values may come before it.

Tests used:
[1] = Brine shrimp toxicity bioassay; type: in vivo; conditions: Artemia salina (brine shrimp), in vivo; 24 hours, 2% DMSO
Text: (§1) The brine shrimp assay procedure determines LC50 values of active compounds. Activities of a broad range of known active compounds are manifested as toxicity to brine shrimp (Artemia salina Leach). There are many applications of the assay including analysis of toxic substances, anaesthetics, morphine-like substances and cocarcinogenicity of phorbol esters.
(§2) The method for testing solvent toxicity used was basically that reported by J L McLaughlin in Methods of Plant Biochemistry (1991), vol. 6 (K Hostettman, ed.), Academic Press, London, 1-32. DMSO solutions of the substances to be tested were added directly to the vials containing the brine shrimp. As the concentration of DMSO that we wished to use was higher than the recommended 1% v/v testing of the toxicity of the DMSO was therefore necessary. The concentrations of DMSO tested on the shrimp, along with the results from the assay which was done in duplicate are listed below.
(§3) Brine shrimp toxicity was assayed, except for some minor modifications, according to the method of McLaughlin et al as reported in Brine Shrimp: A convenient bioassay for active plant constituents, B N Meyer, N R Ferrigni, J E Putnam, L B Jacobsen, D E Nichols and J L McLaughlin in Planta Medica (1982), 45, 31-34 and Crown gall tumours on potato discs and brine shrimp lethality: Two simple bioassays for higher plant screening and fractionation. J L McLaughlin. Methods of Plant Biochemistry (1991), vol. 6 (K Hostettman, ed.), Academic Press, London, 1-32. Ten shrimp were transferred to each of the vials and the volume adjusted to 4.9 mL. Each dose was performed in triplicate, including the control. In quick succession, the appropriate volume of additional DMSO for each dose, required to achieve a final concentration of 2%, was added before the appropriate volume of test solution. The vials were gently mixed and the time noted. After 24 hours, the number of survivors were counted and % mortality was determined. The test compounds were assayed at concentrations of 100 µM, 25 µM, 5 µM, 1 µM and 0.2 µM (and where appropriate concentrations of 0.04 µM and 0.008 µM).
(§4) The brine shrimp were able to survive without food in the vials over the 24 hour period and were therefore not fed.
(§5) The dose-response curves were constructed using the Sigmaplot computer program and the LC50 value was calculated from the intersection point of the curve and the 50 % mortality line. The LC50 values were expressed in both µM and µg/mL.

Lipoxygenase (LP) = biological target: T1, Lipoxygenase (LP) (Rattus norvegicus, UniProt P12527); experiment: Lipoxygenase assay with cell-free enzyme from RBL 2H3 cells (EIA); type: biochemical; conditions: final concentration of 10 µM
T1 construct: cell-free enzyme (Wong et al, 1991) prepared from rat basophilic leukemia (RBL) 2H3 cell lines; endogenous in cells; host or cells: RBL 2H3 (rat basophilic leukemia), 15,000 g supernatant of cells disrupted by nitrogen cavitation
T1 sequence (P12527 1-673): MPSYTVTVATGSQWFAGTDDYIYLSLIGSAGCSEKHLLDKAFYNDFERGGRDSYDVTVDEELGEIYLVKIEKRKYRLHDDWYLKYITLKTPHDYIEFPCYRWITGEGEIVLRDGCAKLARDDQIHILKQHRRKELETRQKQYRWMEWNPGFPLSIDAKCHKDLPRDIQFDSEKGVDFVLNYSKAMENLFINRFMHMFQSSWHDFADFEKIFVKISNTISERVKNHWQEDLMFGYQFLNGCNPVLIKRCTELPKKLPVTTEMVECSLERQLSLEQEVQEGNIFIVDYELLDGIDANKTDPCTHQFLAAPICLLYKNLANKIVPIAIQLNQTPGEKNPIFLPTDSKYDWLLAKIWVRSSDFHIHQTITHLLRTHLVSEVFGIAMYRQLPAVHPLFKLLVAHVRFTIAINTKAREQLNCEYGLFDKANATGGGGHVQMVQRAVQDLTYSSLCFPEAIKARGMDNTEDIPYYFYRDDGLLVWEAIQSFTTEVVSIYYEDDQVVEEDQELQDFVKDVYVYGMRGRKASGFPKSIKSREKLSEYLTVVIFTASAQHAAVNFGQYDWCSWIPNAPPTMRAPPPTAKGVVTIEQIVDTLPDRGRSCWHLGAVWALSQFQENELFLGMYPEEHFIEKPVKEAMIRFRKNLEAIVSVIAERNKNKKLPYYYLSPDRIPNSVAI
Description: Lipoxygenase (LP) assay was performed with cell-free enzyme (Wong et al, 1991) prepared from rat basophilic leukemia (RBL) 2H3 cell lines. Cells were cultured in EMEM containing 10% fetal calf serum and antibiotic until cells reached confluence. Harvested cells were resuspended in Hepes (10 mM) buffer, pH 7.4, containing 1 mM EDTA at 1 x 10^7 cells/ml, and disrupted by nitrogen cavitation using a Parr bomb at 750 psi for 15 min. The broken cells were centrifuged at 15,000 g for 30 min. Aliquots (0.1 ml) of the supernatant were preincubated with or without drugs in Hepes buffer (10 mM Hepes, pH 7, 1 mM EDTA and 150 mM NaCl) for 5 min, and the reaction was initiated with the addition of 50 µl of CaCl2 (16 mM), 50 µl of ATP (2 mM), 5 µl of PAF (2.5 mg/ml) and 5 µl of AA (2.5 mM). The reaction mixture ([…]) was incubated at room temperature for a further 8 min, then diluted with EIA buffer at 1/200 and 1/2000 dilutions and stored on ice for EIA following the protocol provided with the kit.
Validation of LP enzyme activity was carried out by a UV spectrophotometric method in which the enzyme activity was characterised against various concentrations of Ca^2+, ATP, PAF and AA with the measurement of the formation of diene conjugated products of LP at 235 nm.
All compounds were dissolved in DMSO and assayed at a final concentration of 10 µM. NDGA was used as reference compound. The concentration of DMSO in the assay was maintained at 1.5%.

[2] = tested on: brine shrimp (Artemia salina Leach); experiment: Brine shrimp toxicity bioassay; type: in vivo
Text: as §1, §2, §3, §4, §5

SR Ca^2+-ATPase = biological target: T2, SR Ca^2+-ATPase (Canis lupus familiaris, UniProt O46674); experiment: Sarcoplasmic reticulum Ca^2+-ATPase assay; type: biochemical, dog; conditions: for SR Ca^2+-ATPase Activity: 0 µM = 100, dog cardiac SR; for IC50: read-out: SR Ca^2+-ATPase IC50 = conc. for 50% inhibition
T2 construct: Effect of gingerols and their derivatives on the Ca^2+-ATPase activity of dog cardiac SR; from tissue; host or cells: dog heart (cardiac sarcoplasmic reticulum)
Description: A portion at each concentration (54 µl) was aliquoted into 4 designated wells of the microplate (two of four wells were controls). Each well was mixed with ATP solution (20 mM, 6 µl), except the controls, using an 8 channel pipette. The controls were assayed in the absence of ATP or calcium.
The plate was incubated with the lid on, for 30 min at 37°C, colour reagent (160 µl) was then added and mixed with citrate solution (34%, 30 µl). The plate was developed at room temperature for 30 min then absorbance at 655 nm was read from the microplate reader. The Ca^2+-ATPase activity was quantitated, from a Pi standard curve, as concentration of liberated inorganic phosphate.
Stock solutions (10 mM) of test substance were prepared in DMSO, then series dilutions were made either in DMSO or in 1M HEPES to produce the dose-response concentrations. The maximum concentration of DMSO in the final assay solution was 2.5%.
Each concentration of test substance was assayed in duplicate in the presence and absence of ATP or calcium. Phosphate standards are run on each plate as follows:
Effect of gingerols and their derivatives on the Ca^2+-ATPase activity of dog cardiac SR.

guinea pig atria = experiment: Organ bath assay on isolated guinea pig atria (rate and force of contraction); conditions: guinea pig atria
Description: Male guinea pigs, 3-4 weeks old, were killed by rapid cervical dislocation without induced anaesthesia. Then, the guinea pigs were dissected to isolate the atria which were immediately mounted vertically in an organ bath containing Krebs-Henseleit solution oxygenated with carbogen.
One gram tension was applied to the atria and the base line continuously adjusted until it was stable for 20 mins. The rate and force of contraction were recorded using Mac Lab equipment.
Test substances in DMSO were assayed to a maximum concentration of 50 µM at a final concentration of 2.5 % of DMSO.

rat mesenteric artery = experiment: Vasodilation on rat mesenteric small arteries; conditions: relaxation of small arteries (200-300 µm) precontracted with endothelin
Text: Small arteries (200-300 µm in diameter) isolated from rat mesentery were precontracted with endothelin prior to addition of the test substances and tested for relaxation.

T2 sequence (O46674 whole entry): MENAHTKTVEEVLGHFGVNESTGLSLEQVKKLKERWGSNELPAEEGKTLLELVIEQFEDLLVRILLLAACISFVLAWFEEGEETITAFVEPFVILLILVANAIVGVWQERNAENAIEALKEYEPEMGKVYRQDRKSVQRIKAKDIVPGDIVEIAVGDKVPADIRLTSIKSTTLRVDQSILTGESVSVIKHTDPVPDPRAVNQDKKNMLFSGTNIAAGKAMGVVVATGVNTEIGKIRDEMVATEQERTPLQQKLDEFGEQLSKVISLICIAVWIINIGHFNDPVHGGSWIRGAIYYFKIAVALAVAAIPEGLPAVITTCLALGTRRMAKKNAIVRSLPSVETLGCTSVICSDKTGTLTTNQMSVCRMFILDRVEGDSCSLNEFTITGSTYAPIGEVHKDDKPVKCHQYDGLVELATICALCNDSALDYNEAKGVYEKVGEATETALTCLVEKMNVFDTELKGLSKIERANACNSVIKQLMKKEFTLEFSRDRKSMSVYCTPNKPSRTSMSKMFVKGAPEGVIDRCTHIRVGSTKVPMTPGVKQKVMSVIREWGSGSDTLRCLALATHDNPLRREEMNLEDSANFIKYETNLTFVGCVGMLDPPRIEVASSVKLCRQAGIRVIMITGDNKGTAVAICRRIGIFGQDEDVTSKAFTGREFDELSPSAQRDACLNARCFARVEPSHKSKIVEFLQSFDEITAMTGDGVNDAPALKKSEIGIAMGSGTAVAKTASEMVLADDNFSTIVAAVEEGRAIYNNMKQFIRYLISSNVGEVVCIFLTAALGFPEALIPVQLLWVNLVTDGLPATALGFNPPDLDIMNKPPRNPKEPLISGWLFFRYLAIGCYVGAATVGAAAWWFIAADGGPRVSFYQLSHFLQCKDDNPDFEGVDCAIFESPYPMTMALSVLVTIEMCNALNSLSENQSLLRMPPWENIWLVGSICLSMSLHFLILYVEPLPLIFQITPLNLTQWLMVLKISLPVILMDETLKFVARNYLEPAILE

activity at 10 µM (Lipoxygenase (LP)): 2%
SMILES: CCCCCCCC=CC(=O)C=Cc1ccc(O)c(OC)c1 [1-(4-hydroxy-3-methoxyphenyl)dodecane-1,4-diene-3-one]
LC50 at 24 h [1]: 5.4 µM and 1.6 µg/mL

SMILES: CCCCCCCC(O)CC(=O)C=Cc1ccc(O)cc1 (stereo not shown) [5-hydroxy-1-(4-hydroxyphenyl)dodecan-1-ene-3-one]
LC50 at 24 h [1]: 2.6 µM and 0.75 µg/mL

SMILES: C[S+](C)[O-] [DMSO, dimethyl sulfoxide]
% Deaths ([2]; Conc 1 % v/v): 0% | % Deaths ([2]; Conc 2 % v/v): 0% | % Deaths ([2]; Conc 3 % v/v): 0% | % Deaths ([2]; Conc 4 % v/v): 0% | % Deaths ([2]; Conc 5 % v/v): 9% | % Deaths ([2]; Conc 7 % v/v): 12% | % Deaths ([2]; Conc 9 % v/v): 18% | % Deaths ([2]; Conc 11 % v/v): 57% | % Deaths ([2]; Conc 13 % v/v): 96% | % Deaths ([2]; Conc 15 % v/v): 100% | % Deaths ([2]; Conc 20 % v/v): 100% | % Deaths ([2]; Conc 25 % v/v): 100%

SR Ca^2+-ATPase Activity (SR Ca^2+-ATPase; 1 µM): 122 | SR Ca^2+-ATPase Activity (SR Ca^2+-ATPase; 5 µM): 111 | SR Ca^2+-ATPase Activity (SR Ca^2+-ATPase; 10 µM): 133 | SR Ca^2+-ATPase Activity (SR Ca^2+-ATPase; 25 µM): 147 | SR Ca^2+-ATPase Activity (SR Ca^2+-ATPase; 50 µM): 158 | SR Ca^2+-ATPase Activity (SR Ca^2+-ATPase; 100 µM): 149 | SR Ca^2+-ATPase ↑ increase or stimulation (SR Ca^2+-ATPase; @ 10 µM): ↑60% @ 10 | IC50 (SR Ca^2+-ATPase): 50000 nM
SMILES: CCCCCCCCCC(O)CC(=O)c1ccc(O)c(OC)c1 (stereo not shown) [3-hydroxy-1-(4-hydroxy-3-methoxyphenyl)dodecan-1-one]
LC50 at 24 h [1]: 10 µM and 3.2 µg/mL | FORCE OF CONTRACT^n ↑ increase (guinea pig atria; @ 30 (µM)): ↑11% @ 30

SMILES: CCCCCCCCCC(O)CCc1ccc(O)c(OC)c1 (single isomer, unassigned) [enantiomer-2, 1-(4-hydroxy-3-methoxyphenyl)dodecan-3-ol]
EC50 (rat mesenteric artery; Rattus norvegicus): 320 nM

SMILES: CCCCCCCCCC(O)CCc1ccc(O)c(OC)c1 (single isomer, unassigned; enantiomer-1) [enantiomer-1, enantiomer-1 of 1-(4-hydroxy-3-methoxyphenyl)dodecan-3-ol]
EC50 (rat mesenteric artery): 500 nM

IC50 (SR Ca^2+-ATPase): > 100000 nM
SMILES: CCCCCC(O)CC(=O)CCc1ccc(O)cc1 (stereo not shown) [[6]-demethoxygingerol, 5-hydroxy-1-(4-hydroxyphenyl)decan-3-one]
LC50 at 24 h [1]: > 100 µM and > 26 µg/mL | FORCE OF CONTRACT^n (guinea pig atria; result in words): inactive | HEART RATE (guinea pig atria; result in words): inactive
